# Target: T1, NL-hA2AAR (Homo sapiens, UniProt P29274)
# T1 construct: expressed in transfected cells; host or cells: HEK293T, transient transfection (FuGENE)
# Assay: NanoBRET saturation ligand-binding assay, NL-hA2AAR
# Conditions: HEK293T cells transiently expressing NL-hA2AAR, mean ± SEM; read-out: affinity values pKD, NL-hA2AAR (converted)
# Method: Probes 11 and 12 were further evaluated for their ability to bind the other three adenosine receptor subtypes (NL-A2AAR, NL-A2BAR, and NL-A3AR), and their ligand-binding properties were quantified in the NanoBRET saturation and inhibition binding assays, respectively (Table 1 and Figure 4). […]
# plates (Nunc Lab-Tek, Thermo Fischer Scientific), pre-coated with Poly-D-Lysine, at 20,000 cells per well in DMEM/10% FCS. 24 h post seeding, cells were transiently transfected with human SNAP-A1. Transient transfections were carried out following manufacturer’s protocol: used FuGENE (Promega) HD at 3:1 ratio of reagent to cDNA with a total of 300 ng cDNA per well. Transfection solutions were made up in Gibco Opti-MEM (Thermo Fischer Scientific), incubated at RT for 5 min and added as 11 µL per well. Cells were incubated for additional 24 h at 37 OC, 5% CO2. Transient Transfection of NanoLuc-tagged human A 2AAR in HEK293T cell line was carried out as follows: 72 h prior to the experiment cells were removed from a confluent T75 flask and centrifuged. The pellet of cells was resuspended in 10 mL of fresh complete DMEM. […]
# 37 °C for kinetic binding experiments. Emissions were read at 420 nm (80 nm bandpass; […]
# T1 sequence (P29274 whole entry): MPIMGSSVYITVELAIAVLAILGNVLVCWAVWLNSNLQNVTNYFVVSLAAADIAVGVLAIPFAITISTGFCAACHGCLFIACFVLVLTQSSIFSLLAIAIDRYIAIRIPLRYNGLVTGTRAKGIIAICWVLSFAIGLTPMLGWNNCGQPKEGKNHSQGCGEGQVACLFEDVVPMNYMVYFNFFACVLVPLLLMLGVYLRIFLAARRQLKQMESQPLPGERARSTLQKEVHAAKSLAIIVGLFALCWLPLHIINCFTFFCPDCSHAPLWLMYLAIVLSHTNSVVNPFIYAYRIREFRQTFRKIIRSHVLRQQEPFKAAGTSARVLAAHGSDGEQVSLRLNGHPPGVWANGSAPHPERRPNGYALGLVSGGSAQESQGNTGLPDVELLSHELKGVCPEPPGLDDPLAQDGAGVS
structure (smiles),measurement,value
"CCCCn1c(=O)c2[nH]c(C34CCC(C(=O)NCCNC(=O)CCNC(=O)c5ccc(OC(=O)CCCCC[N+]6=C(/C=C/C=C/C=C7/N(C)c8ccc(S(=O)(=O)O)cc8C7(C)C)C(C)(C)c7cc(S(=O)(=O)[O-])ccc76)c(F)c5)(CC3)CC4)nc2n(CCCC)c1=O [Compound 11, 1-(6-(4-((3-((2-(4-(1,3-Dibutyl-2,6-dioxo-2,3,6,7-tetrahydro-1H-purin-8-yl)bicyclo[2.2.2]octane-1-carboxamido)ethyl)amino)-3-oxopropyl)carbamoyl)-2-fluorophenoxy)-6-oxohexyl)-3,3-dimethyl-2-((1E,3E)-5-((E)-1,3,3-trimethyl-5-sulfoindolin-2-ylidene)penta-1,3-dien-1-yl)-3H-indol-1-ium-5-sulfonate]",Kd,245 nM
